{
  "source": "patent US12433860B2",
  "about": "“Treatment of multiple sclerosis comprising DHODH inhibitors” (Immunic AG, priority 2021, dated 2025)",
  "key": {"[1]": {"settings": "in vivo; cited from earlier work"}, "[2]": {"system": "patients with RRMS and evidence of active disease", "assay": "EMPhASIS Cohort 2 interim analysis: MRI lesions up to Week 12", "assay_type": "in vivo, human", "description": "Given the relative equal performance of the two doses in Cohort 1 (see Example 1) and to allow for pharmacodynamic modeling of the dose-response relationship, a lower dose was investigated. The objective of the Cohort 2 sub-trial is to obtain exploratory data on the dose response of IMU-838 by evaluating a lower IMU-838 dose i.e. 10 mg/day to provide additional data for pharmacodynamic modelling. The 10 mg IMU-838 dose was selected since it is more than 50% lower than the lowest effective dose of Cohort 1 (30 mg IMU 838) and avoids undesired overlap in serum trough levels for pharmacodynamic modelling of the pooled Cohort 1 and 2 data. A small placebo arm is included to provide blinding of patients and to relate Cohort 2 treatment effects. Assessments and procedures mostly follow those described for the main treatment period in the Cohort 1 main trial. Trial objectives and endpoints: The objective of this sub-trial is to obtain more efficacy and safety data of IMU-838 in patients with RRMS and to allow pharmacodynamic modelling of the dose response. The endpoints analyzed in this interim analysis were between-treatment differences in the following MRI parameters: cumulative number of CUA MRI lesions up to Week 12; cumulative number of new Gadolinium enhancing (Gd+) lesions up to Week 12; proportion of patients without CUA MRI lesions until Week 12; and proportion of patients without new Gd+ lesions until Week 12. Overall trial design and plan: This is a double-blind, placebo-controlled, randomized, parallel-group sub-trial of P2 IMU-838 MS to assess the efficacy and safety of once-daily oral 10 mg/day IMU-838 compared to placebo in patients with RRMS and evidence of active disease. The sub-trial consists of a blinded main treatment period and an open-label, extended treatment period (FIG. 2). Patients were randomized 1:4 to placebo and 10 mg IMU-838 on Day 0."}, "[3]": {"system": "patients with relapsing-remitting multiple sclerosis", "assay": "EMPhASIS Cohort 1: annualized relapse rate and time-to-first relapse", "assay_type": "in vivo, human", "settings": "for adjusted mean annualized relapse rate: baseline until week 24", "description": "Other secondary endpoints included: the difference in the cumulative number of combined unique active lesions up to week 24 between vidofludimus calcium 45 mg and vidofludimus calcium 30 mg; number or cumulative number of gadolinium-enhancing, T1, or T2 lesions up to 24 weeks; annualized relapse rate from baseline until week 24; proportion of relapse-free patients up to week 24; time-to-first relapse; change in EDSS score from baseline; proportion of patients with EDSS score progression; brain atrophy and other MRI endpoints; and safety and tolerability as assessed by the investigators. Annualized relapse rate was defined as the total number of confirmed relapses divided by the real exposure time in years assessed over the time during the double-blind treatment period. EDSS progression was defined as an increase compared to baseline of at least 1.0 point for patients with a baseline EDSS score of 1.0 to 4.0 or of at least 1.5 points for patients with a baseline EDSS score of 0. Vidofludimus calcium trough concentrations (weeks 6 and 24) were used to assess the correlation between pharmacokinetics and MRI-based assessments. The effects of vidofludimus calcium on serum neurofilament (baseline and week 24) were also analyzed. All other secondary efficacy analyses were reported using descriptive statistics and were considered exploratory. The mean number or cumulative number of gadolinium-enhancing (Gd+), T1, or T2 lesions were summarized descriptively and analyzed with a generalized linear model as described earlier but adjusted for MRI field strength and baseline number of gadolinium-enhancing lesions only. Annualized relapse rate was compared between treatment groups and between the pooled vidofludimus calcium groups and placebo using a generalized linear model adjusted for baseline number of gadolinium-enhancing lesions, which included the offset term for real exposure time. Time-to-first relapse up to 24 weeks was analyzed using a Cox proportional hazards model, with covariates for treatment group and baseline gadolinium-enhancing lesions strata. The proportion of patients free of relapse was estimated using the Kaplan-Meier method. Statistical analyses were done using SAS version 9.4 (SAS Institute, Cary, NC, USA)."}, "[4]": {"system": "patients with relapsing-remitting multiple sclerosis", "assay": "EMPhASIS Cohort 1: safety and tolerability", "settings": "for proportion of patients with at least one treatment-emergent adverse event: 24 weeks, placebo 44%; for patients who discontinued the study treatment prematurely: placebo 7%", "method": "(§1) Adverse events were assessed at screening, baseline, day 7, and weeks 6, 12, 18, and 24 and all unscheduled clinic visits. Routine clinical chemistries, haematology, liver function tests, and urinalysis were collected at baseline, day 7, and weeks 6, 12, 18, and 24. Vital signs and electrocardiogramere conducted at screening and regularly scheduled intervals. Adverse events of special interest included: red blood cells in urine, haematuria, and retroperitoneal colicky pain with suspected or confirmed nephrolithiasis.\n(§2) The intention-to-treat population was defined as all randomized patients who received at least one dose of placebo or vidofludimus calcium and were analyzed by the groups to which they were randomized. The safety population included all randomized patients who received at least one dose of placebo or vidofludimus calcium and was analyzed by the treatment assigned. The per-protocol population was defined as all randomized patients receiving at least one dose of placebo or vidofludimus calcium and no violations of major protocol criteria during treatment. The modified intention-to-treat population was defined as all randomized patients receiving at least one dose of placebo or vidofludimus calcium and having all MRI scans available for analysis."}, "[5]": {"system": "T-lymphocyte proliferation", "settings": "in vitro; cited from earlier work"}, "[6]": {"target": "human DHODH (Homo sapiens, UniProt Q02127)", "sequence (Q02127 whole entry)": "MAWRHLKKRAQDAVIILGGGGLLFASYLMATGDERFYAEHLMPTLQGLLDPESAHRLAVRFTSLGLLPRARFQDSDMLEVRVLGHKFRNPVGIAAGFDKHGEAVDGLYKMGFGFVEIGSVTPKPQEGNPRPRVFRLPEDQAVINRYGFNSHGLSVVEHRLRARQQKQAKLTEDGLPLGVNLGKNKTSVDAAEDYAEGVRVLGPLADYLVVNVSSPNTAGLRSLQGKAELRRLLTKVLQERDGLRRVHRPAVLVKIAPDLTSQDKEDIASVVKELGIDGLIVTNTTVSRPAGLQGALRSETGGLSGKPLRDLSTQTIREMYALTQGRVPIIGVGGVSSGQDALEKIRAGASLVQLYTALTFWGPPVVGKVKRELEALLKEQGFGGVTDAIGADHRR", "settings": "cited from earlier work"}, "[7]": {"system": "patients with relapsing-remitting multiple sclerosis", "settings": "in vivo", "method": "as §1, §2"}},
  "note": "Values joined by “and” are separate entries in the source; they are usually repeats but may differ in a detail not shown here. Equal entries are not always repeated. Structures can show the parent of a compound that is named as a salt.",
  "data": [
    {"smiles": "COc1cccc(-c2ccc(NC(=O)C3=C(C(=O)O)CCC3)c(F)c2)c1", "note": "[vidofludimus calcium, 1-cyclopentene-1-carboxylic acid, 2-(((3-fluoro-3′-methoxy(1,1′-biphenyl)-4-yl)amino)carbonyl)-, calcium salt (2:1)]", "values": [
      {"measurement": "half-life", "setting": "[1]", "value": "approximately 30 h"},
      {"measurement": "suppression of CUA lesions at Week 12 compared with placebo", "setting": "[2]; 10 mg", "value": 32, "unit": "%"},
      {"measurement": "Cumulative number of CUA MRI lesions up to Week 12, Mean", "setting": "[2]; 10 mg (C2), mFAS, placebo 4.4", "value": 3.0},
      {"measurement": "Patients without CUA MRI lesions over 12 weeks", "setting": "[2]; 10 mg (C2), mFAS, placebo 41.4, listed as IMU-838", "value": "46% and 45.7%"},
      {"measurement": "Patients without New Gd+ lesions over 12 weeks", "setting": "[2]; 10 mg (C2), mFAS, placebo 49.3, listed as IMU-838", "value": "51% and 51.1%"},
      {"measurement": "lowest effective dose in patients with rrMS", "setting": "[2]; totality of Cohort 1 data and Week 12 interim analysis of Cohort 2", "value": 30, "unit": "mg"},
      {"measurement": "adjusted mean annualized relapse rate", "setting": "[3]; 30 mg once daily", "value": "0.39 (95% Cl 0.22-0.69)"},
      {"measurement": "hazard ratio for relapse up to 24 weeks", "setting": "[3]; 30 mg vs placebo", "value": "0.58 (95% Cl: 0.26-1.29)"},
      {"measurement": "rate ratio, annualized relapse rate", "setting": "[3]; 30 mg vs placebo", "value": "0.72 (95% Cl 0.34-1.55)"},
      {"measurement": "adjusted mean annualized relapse rate", "setting": "[3]; 45 mg once daily", "value": "0.48 (95% Cl 0.28-0.82)"},
      {"measurement": "hazard ratio for relapse up to 24 weeks", "setting": "[3]; 45 mg vs placebo", "value": "0.78 (95% Cl: 0.37-1.59)"},
      {"measurement": "rate ratio, annualized relapse rate", "setting": "[3]; 45 mg vs placebo", "value": "0.90 (95% Cl 0.44-1.86)"},
      {"measurement": "patients experiencing serious adverse events", "setting": "[4]; 30 mg group, considered unrelated to treatment", "value": 2, "unit": "patients"},
      {"measurement": "proportion of patients with at least one treatment-emergent adverse event", "setting": "[4]; 30 mg", "value": 45, "unit": "%"},
      {"measurement": "patients who discontinued the study treatment prematurely", "setting": "[4]; 30 mg", "value": 3, "unit": "%"},
      {"measurement": "patients who met hepatotoxicity stopping rules", "setting": "[4]; 45 mg group", "value": "two"},
      {"measurement": "proportion of patients with at least one treatment-emergent adverse event", "setting": "[4]; 45 mg", "value": 41, "unit": "%"},
      {"measurement": "patients who discontinued the study treatment prematurely", "setting": "[4]; 45 mg", "value": 6, "unit": "%"},
      {"measurement": "Serious adverse events", "setting": "[4]; across treatment groups", "value": "0-3%"},
      {"measurement": "Renal treatment-emergent events, patients", "setting": "[4]; any dose, placebo 1%", "value": 2, "unit": "%"},
      {"measurement": "Hepatic treatment-emergent adverse events, patients", "setting": "[4]; any dose, placebo 4%", "value": 4, "unit": "%"},
      {"measurement": "Adverse events of special interest, patients", "setting": "[4]; any dose, ureterolithiasis, placebo 1%", "value": 1, "unit": "%"},
      {"measurement": "tolerability", "setting": "[4]; both doses (30 mg and 45 mg)", "value": "well tolerated"},
      {"measurement": "cardiovascular, haematological, infectious or malignancy-related adverse events", "setting": "[4]; in vivo", "value": "No remarkable cardiovascular, haematological, infectious or malignancy-related adverse events"},
      {"measurement": "changes in haematologic laboratory values (neutrophil, lymphocyte, leukocyte count)", "setting": "[4]; in vivo", "value": "No changes"},
      {"measurement": "changes in serum uric acid", "setting": "[4]; over 24 weeks, any treatment group", "value": "No marked changes"},
      {"measurement": "discontinuations attributable to treatment-emergent adverse events", "setting": "[4]; vidofludimus calcium groups, placebo n=3", "value": 2, "unit": "patients"},
      {"measurement": "Alopecia, fatigue, rash, and cystitis treatment-emergent adverse events not recorded in placebo-treated patients", "setting": "[4]; vidofludimus calcium-treated patients", "value": "1-4%"},
      {"measurement": "T-lymphocyte proliferation", "setting": "[5]", "value": "inhibited"},
      {"measurement": "potency against human DHODH", "setting": "[6]", "value": "submicromolar potency"},
      {"measurement": "deaths during the trial", "setting": "[7]", "value": "No deaths occurred"}
    ]}
  ]
}
